# Measured values taken from patent US9422293B2 (priority 2006, dated 2016).
# Counter-ions that a name gives are not always drawn.
# Target: rat TRPV1 (Rattus norvegicus (Rat), UniProt O35433)
# Conditions: read-out: Rat IC50
# Protocol: Biological Testing: Functional Assay: Block of Capsaicin-Induced Ca^2+ Influx A. Human Assay
# Cells were passaged frequently, every 3-5 days, to avoid overgrowth, depletion of essential medium components, or acidic medium exposure. Cells were passaged using a brief wash in 0.05% trypsin with 1 mM EDTA, followed by dissociation in divalent-free phosphate-buffered saline (Hyclone #SH30028.02). […] The assay buffer was composed of 130 mM NaCl, 2 mM KCl, 2 mM MgCl2, 10 mM HEPES, 5 mM glucose, and either 2 mM or 20 μM CaCl2. On the day of the experiment, the culture medium was replaced with 2 mM calcium assay buffer using an automated plate washer (ELx405; Biotek, VT). […] After loading the cells, the dye solution was replaced with 50 μL/well of 20 μM calcium assay buffer using the ELx405 plate washer. Test compounds (50 μL/well) were added to the plate and incubated for 30 min. […] The IC50 values were determined. […] The contents of the wells were mixed 3 times (40 μL mix volume) immediately after the additions were made. Concentration dependence of block was determined by exposing each well of cells in duplicate rows of a 96 well plate to a serial dilution of test compound. The concentration series usually started at 10 μM with a three-fold serial decrement in concentration. The magnitude of the capsaicin response was determined by measuring the change in fluo3 fluorescence before and 100 seconds after the addition of the agonist. Data were analyzed using a non-linear regression program (Origin; OriginLab, MA). IC50 values shown are the average (mean) of the results obtained.
# The assay was performed as described above, using HEK293 cells transfected with rat TRPV1 (rTRPV1/HEK293). […] IC50 values shown are the average (mean) of the results obtained.
# Chain of rat TRPV1 (O35433 whole entry): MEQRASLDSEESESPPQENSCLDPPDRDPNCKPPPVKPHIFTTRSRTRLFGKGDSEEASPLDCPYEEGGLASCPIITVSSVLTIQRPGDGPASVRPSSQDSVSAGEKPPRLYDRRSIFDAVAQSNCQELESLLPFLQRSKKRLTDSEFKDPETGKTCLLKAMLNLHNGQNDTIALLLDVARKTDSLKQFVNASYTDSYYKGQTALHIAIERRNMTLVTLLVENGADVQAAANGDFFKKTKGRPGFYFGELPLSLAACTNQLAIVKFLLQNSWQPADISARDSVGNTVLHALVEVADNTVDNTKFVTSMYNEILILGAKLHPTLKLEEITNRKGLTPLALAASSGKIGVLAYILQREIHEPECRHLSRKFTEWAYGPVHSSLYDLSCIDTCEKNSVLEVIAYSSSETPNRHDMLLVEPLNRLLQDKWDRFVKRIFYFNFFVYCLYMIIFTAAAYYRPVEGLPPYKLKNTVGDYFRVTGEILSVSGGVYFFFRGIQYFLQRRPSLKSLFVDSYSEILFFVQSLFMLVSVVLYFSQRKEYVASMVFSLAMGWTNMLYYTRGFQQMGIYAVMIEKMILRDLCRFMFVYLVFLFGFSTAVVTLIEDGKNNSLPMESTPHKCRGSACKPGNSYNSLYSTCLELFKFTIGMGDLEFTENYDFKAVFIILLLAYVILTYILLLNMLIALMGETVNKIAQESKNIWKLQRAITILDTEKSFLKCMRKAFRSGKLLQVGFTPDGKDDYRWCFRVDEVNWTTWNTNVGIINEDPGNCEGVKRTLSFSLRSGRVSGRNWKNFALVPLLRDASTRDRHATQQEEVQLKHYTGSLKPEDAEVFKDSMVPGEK
row,Compound,IC50 [nM]
1,"CC(C)c1nc2c(c(Nc3ccc(C(O)C(F)(F)F)cc3)n1)CCN(c1ncccc1C(F)(F)F)CC2 (stereo not drawn) [Example 183, 2,2,2-Trifluoro-1-[4-({2-(1-methylethyl)-7-[3-(trifluoromethyl)pyridin-2-yl]-6,7,8,9-tetrahydro-5H-pyrimido[4,5-d]azepin-4-yl}amino)phenyl]ethanol]",2370
2,"FC(F)(F)c1ccc(Nc2nc(NC3CC3)nc3c2CCN(c2ncccc2C(F)(F)F)CC3)cc1 [Example 55B, N^2-Cyclopropyl-N^4-(4-trifluoromethyl-phenyl)-7-(3-trifluoromethyl-pyridin-2-yl)-6,7,8,9-tetrahydro-5H-pyrimido[4,5-d]azepine-2,4-diamine trifluoroacetic acid salt]",150
3,"CCCCOc1nc2c(c(Nc3ccc(C(F)(F)F)cc3)n1)CCN(c1ncccc1C(F)(F)F)CC2 [Example 343, 2-(Butyloxy)-N-[4-(trifluoromethyl)phenyl]-7-[3-(trifluoromethyl)pyridin-2-yl]-6,7,8,9-tetrahydro-5H-pyrimido[4,5-d]azepin-4-amine]",60
4,"FC(F)(F)c1ccc(Nc2nc(-c3cccs3)nc3c2CCN(c2ncccc2C(F)(F)F)CC3)cc1 [Example 149, 2-(2-Thienyl)-N-[4-(trifluoromethyl)phenyl]-7-[3-(trifluoromethyl)pyridin-2-yl]-6,7,8,9-tetrahydro-5H-pyrimido[4,5-d]azepin-4-amine]",150
5,"CC(C)c1nc2c(c(Nc3ccc(SC(F)(F)F)cc3)n1)CCN(c1ncccc1C(F)(F)F)CC2 [Example 104, [2-Isopropyl-7-(3-trifluoromethyl-pyridin-2-yl)-6,7,8,9-tetrahydro-5H-pyrimido[4,5-d]azepin-4-yl]-(4-trifluoromethylsulfanyl-phenyl)-amine]",320
6,"CC(C)(C)c1ccc(Nc2nc(-c3ccco3)nc3c2CCN(c2ncccc2C(F)(F)F)CC3)cc1 [Example 145, N-[4-(1,1-Dimethylethyl)phenyl]-2-furan-2-yl-7-[3-(trifluoromethyl)pyridin-2-yl]-6,7,8,9-tetrahydro-5H-pyrimido[4,5-d]azepin-4-amine]",240
7,"FC(F)(F)c1ccc(Nc2nc(N3CCOCC3)nc3c2CCN(c2ncccc2C(F)(F)F)CC3)nc1 [Example 41, [2-Morpholin-4-yl-7-(3-trifluoromethyl-pyridin-2-yl)-6,7,8,9-tetrahydro-5H-pyrimido[4,5-d]azepin-4-yl]-(5-trifluoromethyl-pyridin-2-yl)-amine]",49
8,"CN1CCC(C)(C)c2ccc(Nc3nc(SC4CCCCC4)nc4c3CCN(c3ncccc3C(F)(F)F)CC4)cc21 [Example 371, 2-(Cyclohexylsulfanyl)-7-[3-(trifluoromethyl)pyridin-2-yl]-N-(1,4,4-trimethyl-1,2,3,4-tetrahydroquinolin-7-yl)-6,7,8,9-tetrahydro-5H-pyrimido[4,5-d]azepin-4-amine]",> 6670
9,"CC(C)c1nc2c(c(Nc3ccc(C(C)(C)CO)cc3)n1)CCN(c1ncccc1C(F)(F)F)CC2 [Example 181, 2-Methyl-2-[4-({2-(1-methylethyl)-7-[3-(trifluoromethyl)pyridin-2-yl]-6,7,8,9-tetrahydro-5H-pyrimido[4,5-d]azepin-4-yl}amino)phenyl]propan-1-ol]",820
10,"CC(C)c1nc2c(c(Nc3ccc(C(C)(C)C(=O)O)cc3)n1)CCN(c1ncccc1C(F)(F)F)CC2 [Example 184, 2-Methyl-2-[4-({2-(1-methylethyl)-7-[3-(trifluoromethyl)pyridin-2-yl]-6,7,8,9-tetrahydro-5H-pyrimido[4,5-d]azepin-4-yl}amino)phenyl]propanoic acid]",1950
11,"CC(C)(C)c1ccc(Nc2nc(N3CCCC3)nc3c2CCN(c2ncccc2C(F)(F)F)CC3)cc1 [Example 248, N-[4-(1,1-Dimethylethyl)phenyl]-2-pyrrolidin-1-yl-7-[3-(trifluoromethyl)pyridin-2-yl]-6,7,8,9-tetrahydro-5H-pyrimido[4,5-d]azepin-4-amine]",530
12,"CC(O)CSc1nc2c(c(Nc3ccc(S(=O)(=O)C(F)(F)F)cc3)n1)CCN(c1ncccc1C(F)(F)F)CC2 (stereo not drawn) [Example 362, 1-({7-[3-(Trifluoromethyl)pyridin-2-yl]-4-({4-[(trifluoromethyl)sulfonyl]phenyl}amino)-6,7,8,9-tetrahydro-5H-pyrimido[4,5-d]azepin-2-yl}sulfanyl)propan-2-ol]",190
13,"Cc1cc(C(F)(F)F)ccc1Nc1nc(SC2CCOC2C)nc2c1CCN(c1ncccc1C(F)(F)F)CC2 (stereo not drawn) [Example 369, 2,5-Anhydro-1,4-dideoxy-3-S-(4-{[2-methyl-4-(trifluoromethyl)phenyl]amino}-7-[3-(trifluoromethyl)pyridin-2-yl]-6,7,8,9-tetrahydro-5H-pyrimido[4,5-d]azepin-2-yl)-3-thiopentitol]",10
14,"CCS(=O)(=O)c1cccnc1N1CCc2ncnc(Nc3ccc(C(F)(F)F)cc3)c2CC1 [Example 301, 7-[3-(Ethylsulfonyl)pyridin-2-yl]-N-[4-(trifluoromethyl)phenyl]-6,7,8,9-tetrahydro-5H-pyrimido[4,5-d]azepin-4-amine]",8970
15,"CC(C)c1nc2c(c(Nc3ccc(N4CCCC4)nc3)n1)CCN(c1ncccc1C(F)(F)F)CC2 [Example 165, [2-Isopropyl-7-(3-trifluoromethyl-pyridin-2-yl)-6,7,8,9-tetrahydro-5H-pyrimido[4,5-d]azepin-4-yl]-(6-pyrrolidin-1-yl-pyridin-3-yl)-amine]",2250
16,"OC[C@@H]1CCCN1c1nc2c(c(Nc3ccc(C(F)(F)F)cc3)n1)CCN(c1ncccc1C(F)(F)F)CC2 [Example 260, [(2S)-1-(4-{[4-(Trifluoromethyl)phenyl]amino}-7-[3-(trifluoromethyl)pyridin-2-yl]-6,7,8,9-tetrahydro-5H-pyrimido[4,5-d]azepin-2-yl)pyrrolidin-2-yl]methanol hydrochloride salt]",50
17,"Cc1cc(N)cnc1N1CCc2nc(C(C)C)nc(Nc3ccc(C(F)(F)F)cc3)c2CC1 [Example 83, [7-(5-Amino-3-methyl-pyridin-2-yl)-2-isopropyl-6,7,8,9-tetrahydro-5H-pyrimido[4,5-d]azepin-4-yl]-(4-trifluoromethyl-phenyl)-amine]",990
18,"CC(C)N(C)c1nc2c(c(Nc3ccc(C(F)(F)F)cc3)n1)CCN(c1ncccc1C(F)(F)F)CC2 [Example 272, N^2-Methyl-N^2-(1-methylethyl)-N^4-[4-(trifluoromethyl)phenyl]-7-[3-(trifluoromethyl)pyridin-2-yl]-6,7,8,9-tetrahydro-5H-pyrimido[4,5-d]azepine-2,4-diamine]",200
19,"FC(F)(F)c1ccc(Nc2nc(-c3cccnc3)nc3c2CCN(c2ncccc2C(F)(F)F)CC3)cc1 [Example 176, 2-Pyridin-3-yl-N-[4-(trifluoromethyl)phenyl]-7-[3-(trifluoromethyl)pyridin-2-yl]-6,7,8,9-tetrahydro-5H-pyrimido[4,5-d]azepin-4-amine trifluoroacetic acid salt]",810
20,"CC(C)(C)c1ccc(Nc2nc(CN3CCCCC3)nc3c2CCN(c2ncccc2C(F)(F)F)CC3)cc1 [Example 66B, (4-tert-Butyl-phenyl)-[2-piperidin-1-ylmethyl-7-(3-trifluoromethyl-pyridin-2-yl)-6,7,8,9-tetrahydro-5H-pyrimido[4,5-d]azepin-4-yl]-amine trifluoroacetic acid salt]",930
21,"CN(Cc1ccco1)c1nc2c(c(Nc3ccc(C(F)(F)F)cc3)n1)CCN(c1ncccc1C(F)(F)F)CC2 [Example 216, N^2-(Furan-2-ylmethyl)-N^2-methyl-N^4-[4-(trifluoromethyl)phenyl]-7-[3-(trifluoromethyl)pyridin-2-yl]-6,7,8,9-tetrahydro-5H-pyrimido[4,5-d]azepine-2,4-diamine trifluoroacetic acid salt]",50
22,"CC(=O)c1ccc(Nc2nc(N3CCCCC3)nc3c2CCN(c2ncccc2C(F)(F)F)CC3)cc1 [Example 156, 1-[4-({2-Piperidin-1-yl-7-[3-(trifluoromethyl)pyridin-2-yl]-6,7,8,9-tetrahydro-5H-pyrimido[4,5-d]azepin-4-yl}amino)phenyl]ethanone]",590
23,"FC(F)(F)c1ccc(Nc2nc(-c3ccncc3)nc3c2CCN(c2ncccc2C(F)(F)F)CC3)nc1 [Example 190, 2-Pyridin-4-yl-7-[3-(trifluoromethyl)pyridin-2-yl]-N-[5-(trifluoromethyl)pyridin-2-yl]-6,7,8,9-tetrahydro-5H-pyrimido[4,5-d]azepin-4-amine trifluoroacetic acid salt]",1160
24,"CN1CCCc2ccc(Nc3nc(N4CCCCC4)nc4c3CCN(c3ncccc3C(F)(F)F)CC4)cc21 [Example 163, (1-Methyl-1,2,3,4-tetrahydro-quinolin-7-yl)-[2-piperidin-1-yl-7-(3-trifluoromethyl-pyridin-2-yl)-6,7,8,9-tetrahydro-5H-pyrimido[4,5-d]azepin-4-yl]-amine hydrochloride salt]",120
25,"FC(F)(F)c1ccc(Nc2nc(N3CCCCCC3)nc3c2CCN(c2ncccc2C(F)(F)F)CC3)nc1 [Example 194, 2-Azepan-1-yl-7-[3-(trifluoromethyl)pyridin-2-yl]-N-[5-(trifluoromethyl)pyridin-2-yl]-6,7,8,9-tetrahydro-5H-pyrimido[4,5-d]azepin-4-amine]",70
26,"CN(C)c1nc2c(c(Nc3ccc(C(C)(C)C#N)cc3)n1)CCN(c1ncccc1C(F)(F)F)CC2 [Example 65B, 2-{4-[2-Dimethylamino-7-(3-trifluoromethyl-pyridin-2-yl)-6,7,8,9-tetrahydro-5H-pyrimido[4,5-d]azepin-4-ylamino]-phenyl}-2-methyl-propionitrile trifluoroacetic acid salt]",650

# Same assay, conditions: read-out: Rat IC50; hydrochloride salt
row,Compound,IC50 [nM]
1,"FC(F)(F)c1ccc(Nc2nc(C3CC3)nc3c2CCN(c2ncccc2C(F)(F)F)CC3)cc1 [Example 5A, [2-Cyclopropyl-7-(3-trifluoromethyl-pyridin-2-yl)-6,7,8,9-tetrahydro-5H-pyrimido[4,5-d]azepin-4-yl]-(4-trifluoromethyl-phenyl)-amine hydrochloride salt]",190
